# Test results as given in article PMC7916272, “Colorimetric LPMO assay with direct implication for cellulolytic activity” (Biotechnology for Biofuels, 2021).
# Legend:
# Assay in all cases: absorbance of PHP at […] nm
# Format in all cases: biochemical
# [1] = molecular target: T1, TfAA10A (Thermobifida fusca, UniProt Q47QG3); conditions: 1 µM Cu-loaded enzyme, with or without DHA, 40 °C, 30 min
# T1 construct: gene Tfu_1268; expressed using LyGo platform, purified to homogeneity, loaded with CuCl2
# T1 sequence (Q47QG3 37-222): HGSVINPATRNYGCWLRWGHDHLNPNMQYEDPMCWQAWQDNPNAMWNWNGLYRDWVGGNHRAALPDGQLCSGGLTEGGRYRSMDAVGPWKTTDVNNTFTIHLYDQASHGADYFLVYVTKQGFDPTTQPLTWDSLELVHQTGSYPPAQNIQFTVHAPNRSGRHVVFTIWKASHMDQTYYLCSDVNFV
# [2] = molecular target: T2, AnAA13 (Aspergillus nidulans, UniProt Q5B1W7); conditions: 1 µM Cu-loaded enzyme, with or without DHA, 40 °C, 30 min
# T2 construct: gene aasA; gift from Novozymes, purified to homogeneity, loaded with CuCl2
# T2 sequence (Q5B1W7 19-385): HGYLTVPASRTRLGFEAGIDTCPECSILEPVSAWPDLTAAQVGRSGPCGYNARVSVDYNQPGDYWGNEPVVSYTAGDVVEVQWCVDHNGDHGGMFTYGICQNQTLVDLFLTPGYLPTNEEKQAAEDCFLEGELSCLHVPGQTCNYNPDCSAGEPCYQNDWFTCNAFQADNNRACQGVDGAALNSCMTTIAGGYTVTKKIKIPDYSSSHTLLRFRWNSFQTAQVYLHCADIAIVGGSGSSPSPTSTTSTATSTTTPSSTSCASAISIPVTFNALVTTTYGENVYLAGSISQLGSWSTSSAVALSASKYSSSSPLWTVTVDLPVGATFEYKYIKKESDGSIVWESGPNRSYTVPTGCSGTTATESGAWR
# [3] = molecular target: T3, MtL (Thermothelomyces thermophilus, UniProt G2QFD0); conditions: 1 µM enzyme, with or without DHA, 40 °C, 30 min
# T3 construct: gene LMCO1; gift from Novozymes, purified to homogeneity
# T3 sequence (G2QFD0 21-650): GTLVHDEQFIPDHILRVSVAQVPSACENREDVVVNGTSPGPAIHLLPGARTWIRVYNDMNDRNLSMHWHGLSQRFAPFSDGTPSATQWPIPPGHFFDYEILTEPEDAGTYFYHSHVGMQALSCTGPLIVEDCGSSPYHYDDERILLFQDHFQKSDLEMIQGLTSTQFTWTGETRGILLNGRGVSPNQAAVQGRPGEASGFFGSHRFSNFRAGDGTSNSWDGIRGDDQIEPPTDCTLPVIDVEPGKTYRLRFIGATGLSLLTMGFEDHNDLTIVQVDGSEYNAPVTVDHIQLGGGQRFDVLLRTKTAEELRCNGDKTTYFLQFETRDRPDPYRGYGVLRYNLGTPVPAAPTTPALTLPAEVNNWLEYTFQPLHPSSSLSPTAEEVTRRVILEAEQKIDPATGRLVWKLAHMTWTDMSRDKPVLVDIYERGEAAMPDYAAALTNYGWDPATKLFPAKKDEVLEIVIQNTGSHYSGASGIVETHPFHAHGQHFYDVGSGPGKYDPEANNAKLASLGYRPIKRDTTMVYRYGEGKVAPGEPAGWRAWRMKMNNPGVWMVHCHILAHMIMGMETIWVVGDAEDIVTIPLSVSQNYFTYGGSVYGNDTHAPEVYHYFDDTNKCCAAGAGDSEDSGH
# [4] = molecular target: T4, TtAA9 (Thermothielavioides terrestris, UniProt D0VWZ9); conditions: 1 µM Cu-loaded enzyme, with or without DHA, 40 °C, 30 min
# T4 construct: gene gh61e; gift from Novozymes, purified to homogeneity, loaded with CuCl2
# T4 sequence (D0VWZ9 entry or part of it): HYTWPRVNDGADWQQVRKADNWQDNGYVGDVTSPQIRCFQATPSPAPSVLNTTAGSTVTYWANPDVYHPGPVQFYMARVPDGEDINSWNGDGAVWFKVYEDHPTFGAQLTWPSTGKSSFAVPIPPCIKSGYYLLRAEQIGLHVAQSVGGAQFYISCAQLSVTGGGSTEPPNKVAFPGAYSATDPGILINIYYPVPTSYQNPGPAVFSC
# [5] = molecular target: T5, SmAA10 (Serratia marcescens, UniProt P9WEM3); conditions: 1 µM Cu-loaded enzyme, with or without DHA, 40 °C, 30 min
# T5 construct: gene CBP21; expressed using LyGo platform, purified to homogeneity, loaded with CuCl2
# T5 sequence (P9WEM3 28-197): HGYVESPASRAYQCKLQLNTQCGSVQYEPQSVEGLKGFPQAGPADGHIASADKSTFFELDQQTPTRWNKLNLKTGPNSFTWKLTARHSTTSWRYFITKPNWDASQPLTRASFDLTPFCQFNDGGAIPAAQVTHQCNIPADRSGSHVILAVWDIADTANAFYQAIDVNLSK
# [6] = molecular target: T6, LsAA9A (Panus similis, UniProt A0A0S2GKZ1); conditions: 1 µM Cu-loaded enzyme, with or without DHA, 40 °C, 30 min
# T6 construct: gene LPMO9A; gift from Novozymes, purified to homogeneity, loaded with CuCl2
# T6 sequence (A0A0S2GKZ1 20-254): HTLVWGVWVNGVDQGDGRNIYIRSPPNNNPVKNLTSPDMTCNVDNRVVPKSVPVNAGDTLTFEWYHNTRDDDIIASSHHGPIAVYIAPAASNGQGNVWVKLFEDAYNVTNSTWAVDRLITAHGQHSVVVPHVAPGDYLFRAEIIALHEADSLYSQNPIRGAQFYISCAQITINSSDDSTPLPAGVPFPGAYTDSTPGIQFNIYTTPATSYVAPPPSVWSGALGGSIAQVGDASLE
# [7] = molecular target: T7, CotA (Bacillus subtilis, UniProt H8WGE7); conditions: […] enzyme, with or without DHA, […] °C, […] min
# T7 construct: recombinant from Escherichia coli, purified to homogeneity
# T7 sequence (H8WGE7 1-513): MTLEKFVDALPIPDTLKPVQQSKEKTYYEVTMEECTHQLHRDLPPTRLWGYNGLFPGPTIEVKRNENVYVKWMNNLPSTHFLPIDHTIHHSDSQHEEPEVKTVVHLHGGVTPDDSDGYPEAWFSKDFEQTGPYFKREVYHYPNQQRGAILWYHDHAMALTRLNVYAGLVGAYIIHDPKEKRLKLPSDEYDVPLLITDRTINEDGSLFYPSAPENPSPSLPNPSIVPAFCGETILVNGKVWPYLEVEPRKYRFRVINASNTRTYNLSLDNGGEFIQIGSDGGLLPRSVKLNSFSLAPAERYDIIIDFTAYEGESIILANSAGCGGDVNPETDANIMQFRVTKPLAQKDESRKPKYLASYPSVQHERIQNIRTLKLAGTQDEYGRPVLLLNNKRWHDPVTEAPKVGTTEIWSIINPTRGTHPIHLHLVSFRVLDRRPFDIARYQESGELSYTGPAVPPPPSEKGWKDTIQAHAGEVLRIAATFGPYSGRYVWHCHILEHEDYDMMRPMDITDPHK
structure (smiles),measurement,setting,value
"O=C(O)c1ccccc1C(c1ccc(O)cc1)c1ccc(O)cc1 [rPHP, reduced phenolphthalein]",absorbance of PHP at 552 nm,[1],All LPMOs tested oxidise rPHP in a DHA dependent reaction
same,absorbance of PHP at 552 nm,[2],AnAA13 stands out with a relatively large rPHP oxidation without DHA
same,absorbance of PHP at 552 nm,[3],"did oxidise rPHP; however, the rPHP oxidising activity of these enzymes was not enhanced"
same,absorbance of PHP at 552 nm,[4],All LPMOs tested oxidise rPHP in a DHA dependent reaction
same,absorbance of PHP at 552 nm,[5],All LPMOs tested oxidise rPHP in a DHA dependent reaction
same,absorbance of PHP at 552 nm,[6],All LPMOs tested oxidise rPHP in a DHA dependent reaction
same,absorbance of PHP at 552 nm,[7],"did oxidise rPHP; however, the rPHP oxidising activity of these enzymes was not enhanced"
